{"source": "PubChem BioAssay (NCI)", "assay_in_all_cases": "NCI tumour cell line growth inhibition, 48 h", "key": {"[1]": {"tested_on": "786-0 renal"}, "[2]": {"tested_on": "A498 renal"}, "[3]": {"tested_on": "ACHN renal"}, "[4]": {"tested_on": "BT-549 breast"}, "[5]": {"tested_on": "CAKI-1 renal"}, "[6]": {"tested_on": "COLO 205 colon"}, "[7]": {"tested_on": "DLD-1 colon"}, "[8]": {"tested_on": "DMS 273 small cell lung"}, "[9]": {"tested_on": "DU-145 prostate"}, "[10]": {"tested_on": "EKVX NSCLC"}, "[11]": {"tested_on": "HCC-2998 colon"}, "[12]": {"tested_on": "HCT-116 colon"}, "[13]": {"tested_on": "HL-60(TB) leukemia"}, "[14]": {"tested_on": "HOP-92 NSCLC"}, "[15]": {"tested_on": "HS 578T breast"}, "[16]": {"tested_on": "KM20L2 colon"}, "[17]": {"tested_on": "M14 melanoma"}, "[18]": {"tested_on": "M19-MEL melanoma"}, "[19]": {"tested_on": "MALME-3M melanoma"}, "[20]": {"tested_on": "MDA-MB-231 breast"}, "[21]": {"tested_on": "MDA-MB-435"}, "[22]": {"tested_on": "MOLT-4 leukemia"}, "[23]": {"tested_on": "NCI-H460 lung"}, "[24]": {"tested_on": "NCI/ADR-RES ovarian"}, "[25]": {"tested_on": "OVCAR-3 ovarian"}, "[26]": {"tested_on": "OVCAR-4 ovarian"}, "[27]": {"tested_on": "OVCAR-5 ovarian"}, "[28]": {"tested_on": "P388 leukemia"}, "[29]": {"tested_on": "P388/ADR leukemia"}, "[30]": {"tested_on": "PC-3 prostate"}, "[31]": {"tested_on": "RXF 393 renal"}, "[32]": {"tested_on": "SF-268 CNS"}, "[33]": {"tested_on": "SF-295 CNS"}, "[34]": {"tested_on": "SF-539 CNS"}, "[35]": {"tested_on": "SK-MEL-2 melanoma"}, "[36]": {"tested_on": "SK-MEL-28 melanoma"}, "[37]": {"tested_on": "SK-MEL-5 melanoma"}, "[38]": {"tested_on": "SN12C renal"}, "[39]": {"tested_on": "SN12K1 renal"}, "[40]": {"tested_on": "SNB-19 CNS"}, "[41]": {"tested_on": "SNB-75 CNS"}, "[42]": {"tested_on": "SNB-78 CNS"}, "[43]": {"tested_on": "SR leukemia"}, "[44]": {"tested_on": "T-47D breast"}, "[45]": {"tested_on": "TK-10 renal"}, "[46]": {"tested_on": "UACC-257 melanoma"}, "[47]": {"tested_on": "UACC-62 melanoma"}, "[48]": {"tested_on": "UO-31 renal"}}, "note": "“And” between values parts separate entries of the source, which are not always exact repeats. Identical values can stand only once.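 All cell lines were grown in 96-well plates and treated with compound for 48 hours. Abbreviation: GI50, concentration required for 50% inhibition of growth. TGI is the concentration that stops growth completely.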"}
{"smiles": "CC1OC(O[C@@H]2C=C3CC[C@@H]4[C@H](CC[C@]5(C)[C@@H](c6ccc(=O)oc6)CC[C@]45O)[C@@]3(C)CC2)C(O)C(O)C1O", "note": "(stereo not given in full)", "values": [{"measurement": "GI50", "setting": "[1]", "value": 0.0706, "unit": "nM"}, {"measurement": "GI50", "setting": "[2]", "value": 1.27, "unit": "nM"}, {"measurement": "GI50", "setting": "[3]", "value": 4.78, "unit": "nM"}, {"measurement": "TGI", "setting": "[3]", "value": "3 nM and 0.431 nM"}, {"measurement": "GI50", "setting": "[4]", "value": 6.15, "unit": "nM"}, {"measurement": "TGI", "setting": "[5]", "value": 0.992, "unit": "nM"}, {"measurement": "TGI", "setting": "[6]", "value": "20.8 nM and 47.7 nM"}, {"measurement": "GI50", "setting": "[7]", "value": 0.621, "unit": "nM"}, {"measurement": "TGI", "setting": "[7]", "value": 3, "unit": "nM"}, {"measurement": "GI50", "setting": "[8]", "value": 0.892, "unit": "nM"}, {"measurement": "TGI", "setting": "[8]", "value": 3, "unit": "nM"}, {"measurement": "TGI", "setting": "[9]", "value": 15.3, "unit": "nM"}, {"measurement": "TGI", "setting": "[10]", "value": "3 nM and 1.08 nM"}, {"measurement": "GI50", "setting": "[11]", "value": 1.59, "unit": "nM"}, {"measurement": "TGI", "setting": "[11]", "value": 3, "unit": "nM"}, {"measurement": "TGI", "setting": "[12]", "value": 1.7, "unit": "nM"}, {"measurement": "GI50", "setting": "[13]", "value": "1.5 nM and 5.92 nM"}, {"measurement": "TGI", "setting": "[14]", "value": "3 nM and 0.676 nM"}, {"measurement": "GI50", "setting": "[15]", "value": 3.26, "unit": "nM"}, {"measurement": "TGI", "setting": "[15]", "value": 3, "unit": "nM"}, {"measurement": "GI50", "setting": "[16]", "value": 1.31, "unit": "nM"}, {"measurement": "GI50", "setting": "[17]", "value": 0.0885, "unit": "nM"}, {"measurement": "TGI", "setting": "[17]", "value": 12.4, "unit": "nM"}, {"measurement": "GI50", "setting": "[18]", "value": 1.73, "unit": "nM"}, {"measurement": "TGI", "setting": "[19]", "value": "2.38 nM and 1.39 nM"}, {"measurement": "GI50", "setting": "[20]", "value": 0.383, "unit": "nM"}, {"measurement": "TGI", "setting": "[20]", "value": 13.6, "unit": "nM"}, {"measurement": "GI50", "setting": "[21]", "value": 0.482, "unit": "nM"}, {"measurement": "TGI", "setting": "[21]", "value": 13, "unit": "nM"}, {"measurement": "TGI", "setting": "[22]", "value": 1.27, "unit": "nM"}, {"measurement": "TGI", "setting": "[23]", "value": "3 nM and 0.49 nM"}, {"measurement": "TGI", "setting": "[24]", "value": "3 nM and 0.304 nM"}, {"measurement": "TGI", "setting": "[25]", "value": "2.62 nM and 0.359 nM"}, {"measurement": "TGI", "setting": "[26]", "value": "2.24 nM and 3.65 nM"}, {"measurement": "TGI", "setting": "[27]", "value": "11.5 nM and 31.8 nM"}, {"measurement": "TGI", "setting": "[28]", "value": "> 74800", "unit": "nM"}, {"measurement": "TGI", "setting": "[29]", "value": 159000, "unit": "nM"}, {"measurement": "TGI", "setting": "[30]", "value": 5.58, "unit": "nM"}, {"measurement": "GI50", "setting": "[31]", "value": "1.12 nM and 8.94 nM"}, {"measurement": "TGI", "setting": "[31]", "value": 1.99, "unit": "nM"}, {"measurement": "TGI", "setting": "[32]", "value": 3.53, "unit": "nM"}, {"measurement": "TGI", "setting": "[33]", "value": "3 nM and 0.407 nM"}, {"measurement": "TGI", "setting": "[34]", "value": 0.193, "unit": "nM"}, {"measurement": "TGI", "setting": "[35]", "value": 24.3, "unit": "nM"}, {"measurement": "GI50", "setting": "[36]", "value": 2.81, "unit": "nM"}, {"measurement": "TGI", "setting": "[37]", "value": "3 nM and 12.2 nM"}, {"measurement": "TGI", "setting": "[38]", "value": "3 nM and 18.9 nM"}, {"measurement": "GI50", "setting": "[39]", "value": 0.941, "unit": "nM"}, {"measurement": "TGI", "setting": "[39]", "value": 3, "unit": "nM"}, {"measurement": "TGI", "setting": "[40]", "value": "19.8 nM and 31.9 nM"}, {"measurement": "TGI", "setting": "[41]", "value": 3, "unit": "nM"}, {"measurement": "GI50", "setting": "[42]", "value": 0.596, "unit": "nM"}, {"measurement": "TGI", "setting": "[42]", "value": 3, "unit": "nM"}, {"measurement": "TGI", "setting": "[43]", "value": 1.15, "unit": "nM"}, {"measurement": "GI50", "setting": "[44]", "value": 0.846, "unit": "nM"}, {"measurement": "TGI", "setting": "[45]", "value": "9.39 nM and 6 nM"}, {"measurement": "TGI", "setting": "[46]", "value": "19.7 nM and 40 nM"}, {"measurement": "GI50", "setting": "[47]", "value": 2.16, "unit": "nM"}, {"measurement": "TGI", "setting": "[47]", "value": 3, "unit": "nM"}, {"measurement": "TGI", "setting": "[48]", "value": 2.05, "unit": "nM"}]}
